# Earlier results, collected in patent US6939558B2, “Intravaginal devices containing progesterone for estrus synchronization and related proceses” (Akzo Nobel N.V., priority 2001, dated 2005).
# Tested on: bovines
# Conditions: 1 mg Estradiol Benzoate 24 hours after removal of the device
compound,measurement,value
C[C@]12CC[C@@H]3c4ccc(OC(=O)c5ccccc5)cc4CC[C@H]3[C@@H]1CC[C@@H]2O [Estradiol Benzoate],ovulation after removal of the device,70 h
